≈ marks a conversion by molar mass, not a printed value. Like-named read-outs stand apart in the source and are kept apart here.
Key:
[1] = tested on: E. coli S30 bacterial extract; experiment: Coupled bacterial transcription/translation assay (luciferase reporter); format: biochemical
Description: Coupled Bacterial Transcription/Translation Assay. The DNA template, pBestLuc™ (Promega), is a plasmid containing a reporter gene for firefly luciferase fused to a strong tac promoter and ribosome binding site. Messenger RNA from 1 μg pBestLuc was transcribed and translated in E. coli S30 bacterial extract in the presence or absence of test compound. Compounds were tested in a black 96 well microtiter plate with an assay volume of 35 μL. Each test well contained: 5 μL test compound, 13 μL S30 premix (Promega), 4 μL 10× complete amino acid mix (1 mM each), 5 μL E. coli S30 extract and 8 μL of 0.125 μg/μL pBestLuc™. The transcription/translation reaction was incubated for 35 minutes at 37° C. followed by detection of functional luciferase with the addition of 30 μL LucLite™ (Packard). Light output was quantitated on a Packard TopCount.

E. hirae = experiment: Minimum inhibitory concentration (MIC), E. hirae; format: cell-based; conditions: Enterococcus hirae, Table 6
Description: (§1) Determination of Minimum Inhibitory Concentrations (MICs). The assays were carried out in […] volume in duplicate in 96-well clear flat-bottom plates. The bacterial suspension from an overnight culture growth in appropriate medium was added to a solution of test compound in 4% DMSO in water. Final bacterial inoculum was approximately 10^5-10^6 CFU/well. The percent growth of the bacteria in test wells relative to that observed for a well containing no compound was determined by measuring absorbance at 595 nm (A595) after 24 h. […] Both ampicillin and tetracycline is used as antibiotic-positive controls in each screening assay for S. pyogenes, E. coli imp-, E. coli, S. aureus, E. faecalis, K pneumoniae and P. vulgaris. Ciprofloxacin is used as an antibiotic positive control in each screening assay for P. aeruginosa.

S. pyogenes = experiment: Minimum inhibitory concentration (MIC), S. pyogenes; format: cell-based; conditions: Streptococcus pyogenes
Description: (§2) Bacterial Strains. The Streptococcus pyogenes strains, Klebsiella pneumoniae, Escherichia coli, Staphylococcus aureus, Enterococcus faecalis used in the antibacterial activity studies ATCC 14289, 49399, 13883, 25922, 13709, 29212, respectively, are obtained from the American Type Culture Collection, Rockville, Md. The strain E. coli imp- is a mutant strain of wild type E. coli with increased outer membrane permeability and was grown in LB broth at 37 ° C. S. pyogenes strain is grown in Todd-Hewitt broth. S. aureus is grown in trypticase soy broth, E. faecalis in Todd-Hewitt broth, wild type E. coli and K. pneumoniae, in nutrient broth.
as §1

K. pneumoniae = experiment: Minimum inhibitory concentration (MIC), K. pneumoniae; format: cell-based; conditions: Klebsiella pneumoniae, Table 6
Description: as §2
as §1, with “Ciprofloxacin is used as an antibiotic positive control in each screening assay for P. aeruginosa.” left out

S. aureus = experiment: Minimum inhibitory concentration (MIC), S. aureus; format: cell-based; conditions: Staphylococcus aureus, Table 6
Description: as §2
as §1, with “Ciprofloxacin is used as an antibiotic positive control in each screening assay for P. aeruginosa.” left out

E. coli = experiment: Minimum inhibitory concentration (MIC), E. coli; format: cell-based; conditions: Escherichia coli, Table 6
Description: as §2
as §1, with “Ciprofloxacin is used as an antibiotic positive control in each screening assay for P. aeruginosa.” left out

[2] = tested on: 58 nucleotide fragment of E. coli 23S ribosomal RNA (23S rRNA); experiment: Mass-spec binding assay (ESI-FTICR-MS); conditions: Table 5, amino acid spacer compounds; read-out: approx. Kd
Description: Binding affinity of test compounds to a 58 nucleotide fragment of E. coli 23S ribosomal RNA (23S rRNA) was determined using electrospray ionization Fourier transform ion cyclotron resonance mass spectrometry (ESI-FTICR-MS). The structure of the 23S rRNA fragment and its preparation is described by Conn et al (Science, 1999, 284(5417):1171) and Hinck et al (J. Mol. Biol., 1997, 274(1): 101) both incorporated herein by reference. The mass spec assay determined the exact chemical composition of ligands that bound to the target rRNA and determined relative or absolute dissociation (KD) of ligands for the target. In the first step of the assay, a mixture of 23S rRNA target and test compound were moved from solution into the gas phase by electrospray ionization. The FT-ICR mass spectrometer served as a parallel set of “scales”, simultaneously measuring the exact molecular masses of the small molecules that bound to the RNA with great accuracy. The mass measurement error for an RNA-ligand complex weighing 10 kDa equals the mass of an electron. At this level of mass accuracy, each compound in the mixture was “labeled” by its molecular formula and exact molecular mass. […]

[3] = S. pyogenes, Table 6, read-out: MIC
[4] = Table 5, amino acid spacer compounds

O=C(Nc1cccc(-c2ccc(C(=O)N3CCNCC3)o2)c1)c1ccc2[nH]c(=O)c(=O)[nH]c2c1
IC50 ([1]; Table 4, heteroaryl compounds): 25 µM

O=C(Nc1cccc(-c2nc(C(=O)N3CCNCC3)cs2)c1)c1ccc2[nH]c(=O)c(=O)[nH]c2c1
IC50 ([1]; Table 4, heteroaryl compounds): 75 µM

O=C(Nc1cccc(-c2ccc(S(=O)(=O)N3CCNCC3)s2)c1)c1ccc2[nH]c(=O)c(=O)[nH]c2c1
IC50 ([1]; Table 4, heteroaryl compounds): 35 µM

O=c1[nH]c2ccc(S(=O)(=O)Nc3cccc(-c4ccc(CN5CCNCC5)s4)c3)cc2[nH]c1=O
IC50 ([1]; Table 4, heteroaryl compounds): 80 µM

O=C(c1ccc(-c2cccc(NS(=O)(=O)c3ccc4[nH]c(=O)c(=O)[nH]c4c3)c2)s1)N1CCNCC1
IC50 ([1]; Table 4, heteroaryl compounds): 80 µM

O=C(Nc1ccc(-c2ccc(CN3CCNCC3)s2)cc1)c1ccc2[nH]c(=O)c(=O)[nH]c2c1
IC50 ([1]; Table 4, heteroaryl compounds): 55 µM

O=C(CNC(=O)c1ccc2[nH]c(=O)c(=O)[nH]c2c1)Nc1cccc(-c2ccc(C(=O)N3CCNCC3)s2)c1
IC50 ([1]; Table 4, heteroaryl compounds): 100 µM

O=C(Nc1ccc(-c2ccc(C(=O)N3CCNCC3)s2)cc1)c1ccc2[nH]c(=O)c(=O)[nH]c2c1
IC50 ([1]; Table 4, heteroaryl compounds): 50 µM

O=C(Nc1ccc(-c2ccc(C(=O)Nc3ccc(C(=O)N4CCNCC4)cc3)s2)cc1)c1ccc2[nH]c(=O)c(=O)[nH]c2c1
IC50 ([1]; Table 4, heteroaryl compounds): 30 µM

O=C(Nc1cccc(-c2ccc(C(=O)N3CCC[C@H]3C(=O)N3CCNCC3)s2)c1)c1ccc2[nH]c(=O)c(=O)[nH]c2c1
IC50 ([1]; Table 4, heteroaryl compounds): 25 µM

CCn1cc(C(=O)Nc2cccc(-c3ccc(C(=O)N4CCNCC4)s3)c2)c(=O)c2ccc(C)nc21
MIC (E. hirae): 50 to 100 µM (≈ 25.1 to 50.2 µg/mL) | MIC (S. pyogenes; [3]): 25 to 50 µM (≈ 12.5 to 25.1 µg/mL) | MIC (K. pneumoniae): 50 to 100 µM (≈ 25.1 to 50.2 µg/mL) | MIC (S. aureus): 50 to 100 µM (≈ 25.1 to 50.2 µg/mL) | MIC (E. coli): 50 to 100 µM (≈ 25.1 to 50.2 µg/mL)

NCCC(NC(=O)c1ccc(-c2cccc(NC(=O)c3ccc4[nH]c(=O)c(=O)[nH]c4c3)c2)s1)C(=O)N1CCNCC1 (centres unmarked)
MIC (S. pyogenes): 50 to 100 µM (≈ 28.8 to 57.6 µg/mL)

CCn1cc(C(=O)Nc2ccc(-c3ccc(C(=O)N4CCNCC4)s3)cc2)c(=O)c2ccc(C)nc21
MIC (S. pyogenes; [3]): 50 to 100 µM (≈ 25.1 to 50.2 µg/mL) | MIC (E. coli): 50 to 100 µM (≈ 25.1 to 50.2 µg/mL)

O=C(Nc1cccc(-c2ccc(C(=O)N3CCNCC3)s2)c1)c1ccc2[nH]c(=O)c(=O)[nH]c2c1 [Structure 1]
Kd [2]: 79 µM | IC50 [1, 4]: 25 µM

O=C(Nc1cccc(-c2ccc(C(=O)NCCC(=O)N3CCNCC3)s2)c1)c1ccc2[nH]c(=O)c(=O)[nH]c2c1 [Structure 3]
Kd [2]: 139 µM | IC50 [1, 4]: 35 µM

O=C(Nc1cccc(-c2ccc(C(=O)N3CCNCC3)s2)c1)c1ccc2[nH]c(=O)c(=O)[nH]c2c1 [drawing 51]
IC50 ([1]; Table 4, heteroaryl compounds): 25 µM
